Experimental data as given in patent publication US20220226508A1, “METHODS AND COMPOSITIONS FOR TREATING EPILEPSY” (THE REGENTS OF THE UNIVERSITY OF CALIFORNIA, priority 2019, published 2022).
“Also recorded” adds a separate entry of the source. Read-outs that look alike come from different tables or passages of the source.

Assays:
human 5-HT2AR [1] = biological target: T1, human 5-HT2AR (Homo sapiens, UniProt P28223); test: biochemical; assay type: binding
T1 construct: expressed in transfected cells
T1 sequence (P28223 whole entry): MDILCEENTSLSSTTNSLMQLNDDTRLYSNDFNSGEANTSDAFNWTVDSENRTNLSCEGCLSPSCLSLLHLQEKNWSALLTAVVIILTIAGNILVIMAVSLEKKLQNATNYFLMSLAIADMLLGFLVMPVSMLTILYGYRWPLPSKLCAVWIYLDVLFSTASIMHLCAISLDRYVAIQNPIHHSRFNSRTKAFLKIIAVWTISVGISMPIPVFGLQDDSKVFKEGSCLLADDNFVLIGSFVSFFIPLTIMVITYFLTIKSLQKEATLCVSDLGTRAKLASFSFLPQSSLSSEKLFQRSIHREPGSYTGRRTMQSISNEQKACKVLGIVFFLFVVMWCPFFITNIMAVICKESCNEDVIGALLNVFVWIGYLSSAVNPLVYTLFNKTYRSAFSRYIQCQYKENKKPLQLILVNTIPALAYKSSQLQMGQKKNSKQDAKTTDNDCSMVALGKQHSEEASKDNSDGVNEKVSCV
Procedure: (§1) Receptor Binding Assays. In vitro binding assay and Ki data were performed by the US National Institute of Mental Health Psychoactive Drug Screening Program (NIMH PDSP). Drugs were screened against recombinant, stably expressed human 5-HT2AR, 5-HT2BR, 5-HT2CR and H1. For specific binding assays please refer to detailed procedures at https://pdspdb.unc.edu/pdspWeb/ (Besnard, J. et al., Nature, 492, 215-220, 2012).

human 5-HT2BR [2] = biological target: T2, human 5-HT2BR (Homo sapiens, UniProt P41595); test: biochemical; assay type: binding; details: for specificity / selectivity for 5-HT2BR over other 5-HT2R subtypes: radioligand binding
T2 construct: expressed in transfected cells
T2 sequence (P41595 whole entry): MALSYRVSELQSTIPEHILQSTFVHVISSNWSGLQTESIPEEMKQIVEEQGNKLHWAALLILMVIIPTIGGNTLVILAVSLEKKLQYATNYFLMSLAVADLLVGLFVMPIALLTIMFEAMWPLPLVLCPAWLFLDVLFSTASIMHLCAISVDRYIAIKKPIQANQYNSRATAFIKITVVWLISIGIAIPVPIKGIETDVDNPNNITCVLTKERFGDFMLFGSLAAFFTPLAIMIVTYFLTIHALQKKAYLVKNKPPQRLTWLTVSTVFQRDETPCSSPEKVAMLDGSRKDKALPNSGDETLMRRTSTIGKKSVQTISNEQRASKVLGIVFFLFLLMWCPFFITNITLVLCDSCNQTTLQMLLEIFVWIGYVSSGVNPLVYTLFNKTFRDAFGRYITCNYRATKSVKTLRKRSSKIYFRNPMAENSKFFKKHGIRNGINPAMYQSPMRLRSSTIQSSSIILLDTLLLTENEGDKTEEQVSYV
Procedure: as §1

human 5-HT2CR [3] = biological target: T3, human 5-HT2CR (Homo sapiens, UniProt P28335); test: Radioligand binding assay (NIMH PDSP), 5-HT2CR
T3 construct: expressed in transfected cells
T3 sequence (P28335 33-458): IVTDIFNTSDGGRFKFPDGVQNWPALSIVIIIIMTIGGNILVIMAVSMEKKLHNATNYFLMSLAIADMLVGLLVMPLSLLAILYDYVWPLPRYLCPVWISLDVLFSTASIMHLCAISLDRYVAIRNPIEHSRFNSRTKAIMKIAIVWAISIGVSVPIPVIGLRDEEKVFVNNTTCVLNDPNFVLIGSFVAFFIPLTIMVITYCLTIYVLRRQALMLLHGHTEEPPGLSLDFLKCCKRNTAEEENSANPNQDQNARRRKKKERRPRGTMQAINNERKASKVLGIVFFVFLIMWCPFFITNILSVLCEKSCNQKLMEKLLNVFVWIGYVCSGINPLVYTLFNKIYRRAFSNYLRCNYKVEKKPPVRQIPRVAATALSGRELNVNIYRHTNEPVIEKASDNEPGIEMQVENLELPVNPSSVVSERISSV
Procedure: as §1

scn1lab mutant zebrafish [4] = test: Locomotion assay of high-velocity seizure-like swim behavior; assay type: in vivo, zebrafish (Danio rerio); details: for suppression of seizure-like swim behavior (change in mean velocity): independently resynthesized compounds retested at 10, 50, 100 and 250 μM; for suppression of seizure-like swim behavior (change in mean swim velocity): initial library screen at 100 μM and 250 μM, 5 dpf larvae, threshold reduction ≥40%
Description: Zebrafish maintenance. Zebrafish were raised under standard laboratory conditions in accordance with requirements outlined in the Guide for the Care and Use of Animals (ebrary Inc., 2011) and experiments were approved by the Institutional Animal Care and Use Committee (protocol #AN108659-03). Embryos were obtained by natural spawning of scn1lab (didy^s552) heterozygous animals that had been outcrossed to TL strain. Homozygous scn1lab mutants (n=2500) have dispersed melanosomes and appear visibly darker by 3 dpf compared to WT larvae.
(§2) Seizure monitoring. At 5 dpf individual zebrafish larvae were placed into a single well of a clear flat-bottomed 96-well microplate containing embryo media. Larvae were selected randomly as sex determination is not possible at this stage of development. All drug screening experiments were conducted in an unbiased manner by investigators blinded to the test compounds and all files coded for post hoc analysis. Microplates were placed inside the DanioVision and acclimated for 20 min at room temperature. Locomotion plots were obtained for each well at a recording epoch of 10 min using EthoVision XT software (DanioVision, Noldus Information Technology). Seizure scoring was performed using the following three-stage scale established for pentylenetetrazole-induced seizures: Stage 0, no or very little swim activity; Stage I, increased, brief bouts of swim activity; Stage II, rapid “whirlpool-like” circling swim behavior; and Stage III, paroxysmal whole-body clonus-like convulsions, and a brief loss of posture. WT fish are typically scored at Stage 0 or I. Plots were analyzed for distance travelled (in millimeters) and mean velocity (in millimeters per second). After 90 mins of drug exposure larvae were examined for toxic side-effects. Compounds that decreased or stopped the larva heartbeat, or reduced or eliminated the escape response when touched, were considered toxic.
Statistics. Data are presented as the mean±standard error of the mean (SEM), unless otherwise stated. For behavior analysis, the threshold for a change in mean swim velocity ≥40% (>1.5×SD of 250 control treated scn1lab) is considered significant. For comparison between more than two groups one-way ANOVA analysis was used. […] Differences considered statistically significant are indicated with asterisks (*P<0.05; **P<0.01).

scn1lab mutant zebrafish [5] = test: Local field potential (LFP) electrophysiology of electrographic seizure events; assay type: in vivo, zebrafish (Danio rerio); details: 10 min LFP recording, 5 dpf larvae
Procedure: For electrophysiology studies, zebrafish larvae were anesthetized with cold and immobilized in 1.2% agarose; local field potential (LFP) recordings were obtained from forebrain or optic tectum structures using a single-electrode approach, as previously described (Baraban, S. C. et al., Neuroscience, 131, 759-768, 2005). Agarose-embedded LFP recording sessions of 10 min were obtained at 1 kHz. Epileptiform events were identified post hoc and defined as multi-spike or poly-spike upward or downward membrane deflections greater than 3× baseline noise level and 150-250 ms in duration (interictal-like) or greater than 5× baseline noise, multi-spike and >500 ms in duration (ictal-like); both events were counted using threshold detection settings in Clampfit (Molecular Devices; Sunnyvale, Calif.). During electrophysiology experiments larvae were continuously monitored for blood flow and heart rate using an Axiocam digital camera at video frame rate.
Monitoring electrographic brain activity to confirm seizure suppression is an essential assay to eliminate false positives from behavioral testing (Griffin, A. et al., Frontiers in Pharmacology, 9, 2018). By placing a microelectrode into a visually identified brain region of an agar-immobilized zebrafish larval, stable local field potential (LFP) recordings can be monitored for several hours (Baraban, S. C. et al., Nat Commun, 4, 2410, 2013). At 5 dpf LFP recordings of scn1Lab zebrafish larvae show an average of 250 abnormal electrographic seizure events during a 10 min recording epoch.

human H1 receptor = human H1 receptor (Homo sapiens, UniProt P35367); test: Radioligand binding assay (NIMH PDSP), H1; parameters: expressed in transfected cells
Chain of human H1 receptor (P35367 whole entry): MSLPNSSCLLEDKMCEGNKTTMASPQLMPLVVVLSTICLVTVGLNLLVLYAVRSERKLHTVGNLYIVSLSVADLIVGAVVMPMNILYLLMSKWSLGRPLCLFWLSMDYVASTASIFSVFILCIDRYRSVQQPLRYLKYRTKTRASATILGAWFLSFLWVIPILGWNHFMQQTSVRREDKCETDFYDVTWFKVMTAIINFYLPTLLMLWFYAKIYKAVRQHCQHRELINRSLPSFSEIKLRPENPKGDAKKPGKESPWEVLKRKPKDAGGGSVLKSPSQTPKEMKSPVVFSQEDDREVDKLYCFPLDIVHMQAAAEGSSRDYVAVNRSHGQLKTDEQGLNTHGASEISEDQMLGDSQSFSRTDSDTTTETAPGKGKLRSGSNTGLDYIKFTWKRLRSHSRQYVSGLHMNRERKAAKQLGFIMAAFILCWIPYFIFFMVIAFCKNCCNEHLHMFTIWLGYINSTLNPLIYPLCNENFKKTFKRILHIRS
Procedure: as §1

scn1lab mutant zebrafish [6] = test: Toxicity in larvae after 90 min drug exposure (heartbeat, escape response); assay type: in vivo, zebrafish (Danio rerio)
Procedure: as §2

human 5-HT2R = test: Radioligand binding assays (NIMH PDSP), 5-HT2R subtypes together; details: 5-HT2AR, 5-HT2BR, 5-HT2CR
Procedure: Receptor Binding Assays. In vitro binding assay and Ki data were performed by the US National Institute of Mental Health Psychoactive Drug Screening Program (NIMH PDSP). Drugs were screened against recombinant, stably expressed human 5-HT2AR, 5-HT2BR, 5-HT2CR and H1.

[7] = Solubility in the screening medium; assay type: physicochemical; details: 250 μM
Procedure: 10 mM compound stock solutions were made in DMSO and then diluted in embryo medium for assays.

human 5-HT2BR [8] = biological target: T2, human 5-HT2BR; details: known drugs and commercial compounds; read-out: binding affinity (Ki) 5-HT2B / 5-HT2BR; cited from earlier work
human 5-HT2CR [9] = biological target: T3, human 5-HT2CR; details: known drugs and commercial compounds; read-out: binding affinity (Ki) 5-HT2C / 5-HT2CR; cited from earlier work
human 5-HT2AR [10] = biological target: T1, human 5-HT2AR; details: known drugs and commercial compounds; read-out: binding affinity (Ki) 5-HT2A / 5-HT2AR; cited from earlier work
[11] = read-out: binding affinity (Ki) 5-HT2AR
[12] = clemizole analogs, recombinant human receptor, read-out: binding affinity (Ki) 5-HT2BR
[13] = read-out: binding affinity (Ki) 5-HT2CR
[14] = 30 and 90 min exposure, threshold ≥40%
[15] = clemizole analogs, recombinant human receptor, read-out: binding affinity (Ki) H1
[16] = clemizole analogs, recombinant human receptor, read-out: binding affinity (Ki) 5-HT2CR
[17] = read-out: binding affinity (Ki) 5-HT2BR
[18] = read-out: binding affinity (Ki) H1

FC(F)(F)c1ccc(Cn2c(CN3CCCC3)nc3ccccc32)cc1 [Compound 6, 2-[(Pyrrolidin-1-yl)methyl]-1-{[4-(trifluoromethyl)phenyl]methyl}-1H-benzimidazole]
Ki (human 5-HT2AR [1]; [11]): > 10 µM
Ki (human 5-HT2BR [2]; clemizole analogs, recombinant human receptor, listed as Comp. 6, read-out: binding affinity (Ki) 5-HT2BR): 0.258 µM
Ki (human 5-HT2BR [2]; [12]): 0.285 µM
specificity / selectivity for 5-HT2BR over other 5-HT2R subtypes (human 5-HT2BR [2]): specificity for 5-HT2BR over other 5-HT2R subtypes; also recorded: significant preference for 5-HT2BR
Ki (human 5-HT2CR [3]; [13]): > 10 µM
suppression of seizure-like swim behavior (change in mean velocity) (scn1lab mutant zebrafish [4]; [14]): reduced the high-velocity seizure-like swim behavior
suppression of seizure-like swim behavior (change in mean swim velocity) (scn1lab mutant zebrafish [4]): effective in suppressing
frequency of electrographic seizure (epileptiform) events (scn1lab mutant zebrafish [5]; 100 μM): significant changes in the frequency of events; also recorded: significant suppression of electrographic seizure activity
Ki (human H1 receptor; [15]): 0.016 µM

Clc1ccc(Cn2ccnc2CN2CCCC2)cc1 [Compound 9, 1-[(4-Chlorophenyl)methyl]-2-[(pyrrolidin-1-yl)methyl]-1H-imidazole]
Ki (human 5-HT2CR [3]; [16]): 0.447 µM
suppression of seizure-like swim behavior (change in mean swim velocity) (scn1lab mutant zebrafish [4]): effective in suppressing
toxicity after 90-min exposure (scn1lab mutant zebrafish [6]; 250 μM): toxic
Ki (human H1 receptor; [15]): 0.029 µM

N#Cc1cccc(Cn2c(CN3CCCC3)nc3ccccc32)c1 [Compound 10]
Ki (human 5-HT2AR [1]; [11]): > 10 µM
Ki (human 5-HT2BR [2]; [17]): > 10 µM
Ki (human 5-HT2CR [3]; [13]): > 10 µM
binding to any human 5-HT2R (human 5-HT2R): no significant binding
Ki (human H1 receptor; [18]): 0.351 µM

c1ccc2c(c1)nc(CN1CCCC1)n2CC1CCOCC1 [Compound 15]
Ki (human 5-HT2AR [1]): > 10 µM
Ki (human 5-HT2BR [2]): > 10 µM
Ki (human 5-HT2CR [3]): > 10 µM
binding to any human 5-HT2R (human 5-HT2R): no significant binding
Ki (human H1 receptor): 0.865 µM

FC1(F)CCC(Cn2c(CN3CCCC3)nc3ccccc32)CC1 [Compound 17]
Ki (human 5-HT2AR [1]; [11]): > 10 µM
Ki (human 5-HT2BR [2]; [17]): > 10 µM
Ki (human 5-HT2CR [3]; [13]): > 10 µM
binding to any human 5-HT2R (human 5-HT2R): no significant binding
Ki (human H1 receptor; [18]): 0.137 µM

c1ccc2c(c1)nc(CN1CCCC1)n2CC1CCCC1 [Compound 20, 1-(Cyclopentylmethyl)-2-[(pyrrolidin-1-yl)methyl]-1H-benzimidazole]
Ki (human 5-HT2AR [1]; [11]): > 10 µM
Ki (human 5-HT2BR [2]; [12]): 0.772 µM
specificity / selectivity for 5-HT2BR over other 5-HT2R subtypes (human 5-HT2BR [2]): specificity for 5-HT2BR over other 5-HT2R subtypes; also recorded: significant preference for 5-HT2BR
Ki (human 5-HT2CR [3]; [13]): > 10 µM
suppression of seizure-like swim behavior (change in mean velocity) (scn1lab mutant zebrafish [4]; [14]): reduced the high-velocity seizure-like swim behavior
suppression of seizure-like swim behavior (change in mean swim velocity) (scn1lab mutant zebrafish [4]): effective in suppressing
frequency of electrographic seizure (epileptiform) events (scn1lab mutant zebrafish [5]; 100 μM): significant changes in the frequency of events; also recorded: significant suppression of electrographic seizure activity
Ki (human H1 receptor; [15]): 0.161 µM

c1cn(CC2CCCCC2)c(CN2CCCC2)n1 [Compound 21]
Ki (human 5-HT2AR [1]; [11]): > 10 µM
Ki (human 5-HT2BR [2]; [17]): > 10 µM
Ki (human 5-HT2CR [3]; [13]): > 10 µM
binding to any human 5-HT2R (human 5-HT2R): no significant binding
Ki (human H1 receptor; [18]): > 10 µM

Clc1ccc(Cn2c(CN3CCOCC3)nc3ccccc32)cc1 [Compound 23]
Ki (human 5-HT2AR [1]; [11]): > 10 µM
specificity / selectivity for 5-HT2BR over other 5-HT2R subtypes (human 5-HT2BR [2]): selectivity for 5-HT2BR
Ki (human 5-HT2BR [2]; [17]): 0.515 µM
Ki (human 5-HT2CR [3]; [13]): > 10 µM
toxicity after 90-min exposure (scn1lab mutant zebrafish [6]; initial library screen, concentration not given): toxic
Ki (human H1 receptor; [18]): 0.034 µM

CC(C)(C)OC(=O)N1CCN(Cc2nc3ccccc3n2Cc2ccc(Cl)cc2)CC1 [Compound 25, tert-Butyl 4-({1-[(4-chlorophenyl)methyl]-1H-benzimidazol-2-yl}methyl)piperazine-1-carboxylate]
Ki (human 5-HT2AR [1]; clemizole analogs, recombinant human receptor, read-out: binding affinity (Ki) 5-HT2AR): 2.38 µM
Ki (human 5-HT2BR [2]; [12]): 0.482 µM
Ki (human 5-HT2CR [3]; [16]): 2.27 µM
going into solution [7]: failed to go into solution
Ki (human H1 receptor; [15]): 0.076 µM

CC(C)C[C@H]1C(=O)N2CCC[C@H]2[C@]2(O)O[C@](NC(=O)[C@@H]3C=C4c5cccc6[nH]c(Br)c(c56)C[C@H]4N(C)C3)(C(C)C)C(=O)N12 [bromocriptine]
toxicity after 90-min exposure (scn1lab mutant zebrafish [6]; concentrations higher than 10 μM): toxicity

CC[C@@H](CO)NC(=O)[C@@H]1C=C2c3cccc4[nH]cc(c34)C[C@H]2N(C)C1 [methylergonovine, reference compound]
effect on seizure-like swim behavior (change in mean velocity) (scn1lab mutant zebrafish [4]; commercial 5-HT2BR/dopamine agonists, three concentrations, 30 and 90 min exposure, threshold ≥40%): suppressed convulsive swim behaviors in a concentration-dependent manner
frequency of electrographic seizure (epileptiform) events (scn1lab mutant zebrafish [5]; 250 μM): significant changes in the frequency of events; also recorded: significantly suppressed the frequency of electrographic seizure events
Ki (human 5-HT2BR [8]): 0.0022 µM
Ki (human 5-HT2CR [9]): 0.0046 µM

c1cnc(N2CCN(Cc3ccc4c(c3)OCO4)CC2)nc1 [piribedil]
toxicity after 90-min exposure (scn1lab mutant zebrafish [6]; 100 μM): toxicity
toxicity after 90-min exposure (scn1lab mutant zebrafish [6]; 250 μM): toxicity
Ki (human 5-HT2AR [10]): > 10 µM
Ki (human 5-HT2CR [9]): > 10 µM
